Patent publication US20220184032A1, “INDOLINE DERIVATIVES FOR TREATMENT AND/OR PREVENTION OF FIBROSIS DISEASES” (Taipei Medical University, priority 2015, published 2022)
Where two headings read alike, the source gives them in different places.

Assays:
[1] = system: Salmonella typhimurium TA98; experiment: Ames test, TA98
Procedure: (§1) Two histidine auxotrophic mutants (TA98 and TA100) of Salmonella typhimurium were used. Test strains were obtained from the frozen working stock vial and thawed at room temperature. A 0.2 mL aliquot was inoculated into 25 mL nutrient broth medium and then incubated at 35-37° C. with shaking (120 rpm) for 16-18 hours. The test substance was dissolved in DMSO with 10-fold dilutions to obtain 4 stock concentrations at 30,000, 3,000, 300 and 30 μg/mL. Rat liver microsome enzyme homogenate (S9) mixture was prepared containing 8 mM MgCl2, 33 mM KCl, 4 mM NADP, 5 mM glucose-6-phosphate, 100 mM NaH2PO4 (pH 7.4) and 4% (v/v) Aroclor 1254-induced male rat liver microsome enzyme homogenate (S9). A […] aliquot of test compound stock solution was combined with 0.1 mL strain culture and with 0.5 mL rat liver enzyme homogenate (S9) mixture or 0.5 mL PBS, and then the mixture was incubated at 35-37° C. with shaking (120 rpm) for 20 min. Molten top agar (2 mL containing 0.05 mM histidine and 0.05 mM biotin) was added, and then the mixture was poured onto the surface of a minimal glucose agar plate (30 mL of bottom agar per petri plate) to obtain final test substance concentrations at 3000, 300, 30 and 3μg/plate. The plates were incubated at 37° C. for 72 hours, and then the numbers of His+ revertant colonies were counted. Treatments resulting in a three-fold increase (≥3×) in revertant colonies compared to the vehicle control were considered mutagenic. Treatments that reduced the colony counts to ≤50% of the vehicle control were considered cytotoxic. Assays were performed in triplicate.

[2] = system: Salmonella typhimurium TA100; experiment: Ames test, TA100
Procedure: as §1

[3] = system: BLM-induced lung fibrosis; experiment: Bleomycin (BLM)-induced lung fibrosis mice model, preventive model; type: in vivo; conditions: days 1 to 21 after BLM
Procedure: (§2) In preventive model, C57BL/6JNarl mice (8 weeks) were treated with bleomycin (BLM, 0.05 U/50 μl) or PBS (50 μl) by endotracheal administration. TMU-C-0012 (25, 50, 100 mg/kg/day, q.d.) and dexamethasone (0.5 mg/kg/day, q.d.) were administered orally to bleomycin-treated mice from 1 to 21 days after BLM treatment. On day 21, the mice were sacrificed and, the histologic analysis of lung tissue was performed by hematoxylin-eosin (H&E) staining (original magnification, ×100). In therapeutic model, C57BL/6JNarl mice (8 weeks) were treated with bleomycin (BLM, 0.05 U/50 μl) or PBS (50 μl) by endotracheal administration. TMU-C-0012 (25, 50, 100 mg/kg/day, q.d.) and pirfenidone (200 mg/kg/day, q.d.) were administered orally to bleomycin-treated mice from 10 to 38 days after BLM treatment. On day 39, the mice were sacrificed, and the histologic analysis of lung tissue was performed by hematoxylin-eosin (H&E) staining (original magnification, ×100).

[4] = system: BLM-induced lung fibrosis; experiment: Bleomycin (BLM)-induced lung fibrosis mice model, therapeutic model; type: in vivo; conditions: days 10 to 38 after BLM
Procedure: as §2

[5] = system: OVA-induced lung fibrosis; experiment: OVA lung fibrosis mice model; type: in vivo; conditions: weeks 4 to 12
Procedure: C57BL/6JNarl mice (8 weeks) were treated with OVA (50 μg/50 μl/day) or PBS (50 μl/day) by i.p. injection for 4 weeks. Then, mice were exposure of OVA (5% aerosol exposure) or PBS (aerosol exposure) for 8 weeks. TMU-C-0012 (25 mg/kg/day, q.d.) and dexamethasone (25 mg/kg/day, q.d.) were administered orally to OVA-injected mice from 4 weeks to 12 weeks. On weeks 12, the mice were sacrificed, and the histologic analysis of lung tissue was performed by hematoxylin-eosin (H&E) staining (original magnification, ×100).

[6] = system: CC14-induced liver fibrosis; experiment: CC14-induced liver fibrosis in mice; type: in vivo; conditions: weeks 2 to 6
Procedure: C57BL/6JNarl mice (8 weeks) were treated with CC14 (1 μl/μg/BW, q.w.) or PBS (1 μl/μg/BW, q.w.) by i.p. injection for 6 weeks. TMU-C-0012 (25, 50, 100 mg/kg/day, q.d.) and pirfenidone (250 mg/kg/day, q.d.) were administered orally to CC14-injected mice from 2 weeks to 6 weeks. On day 43, the mice were sacrificed, and the α-SMA analysis of liver tissue was performed by IHC staining (original magnification, ×100).

in vitro = conditions: Chinese hamster, CHO cells with S9, % Cytotoxicity Cell Numbers; for cytotoxicity at 31 µM: 3.1E−05 M
[7] = reference compound, first section (CHO + S9, HCA), 3.6E−05 M
[8] = TA98, Without S9, 3000 μg/plate
[9] = TA100, Without S9, 300 μg/plate
[10] = TA100, Without S9, 3000 μg/plate
[11] = first section (CHO + S9, HCA), 1.3E−04 M
[12] = first section (CHO + S9, HCA), 2.5E−04 M
[13] = first section (CHO + S9, HCA), 3.1E−05 M
[14] = first section (CHO + S9, HCA), 5.0E−04 M
[15] = first section (CHO + S9, HCA), 6.3E−05 M
[16] = second section (CHO + S9, HCA), 1.6E−05 M
[17] = second section (CHO + S9, HCA), 3.1E−05 M
[18] = second section (CHO + S9, HCA), 7.8E−06 M

## O=P1(N(CCCl)CCCl)NCCCO1 (stereo not shown) [Cyclophosphamide, reference compound]
CHO; [7]
  % Cytotoxicity CBPI Index: 46.3%
  % Micronucleated Cells: 5.31%
  Test Result: + (p < 0.05 by t-test and % of micronucleated cells at least 3-fold higher than background levels.)

## O=C(/C=C/c1ccc2c(c1)CCN2S(=O)(=O)c1ccccc1)NO [TMU-C-0012, 3-(1-Benzenesulfonyl-2,3-dihydro-1H-indol-5-yl)-N-hydroxyacrylamide]
[1]; TA98, With S9, 3 μg/plate
  Cytotoxicity: −
  Mutagenicity: −
[1]; TA98, With S9, 30 μg/plate
  Cytotoxicity: −
  Mutagenicity: −
[1]; TA98, With S9, 300 μg/plate
  Cytotoxicity: −
  Mutagenicity: −
[1]; TA98, With S9, 3000 μg/plate
  Cytotoxicity: −
  Mutagenicity: −
[1]; TA98, Without S9, 3 μg/plate
  Cytotoxicity: −
  Mutagenicity: −
[1]; TA98, Without S9, 30 μg/plate
  Cytotoxicity: −
  Mutagenicity: −
[1]; TA98, Without S9, 300 μg/plate
  Cytotoxicity: −
  Mutagenicity: −
[1]; [8]
  Cytotoxicity: −
  Mutagenicity: −
[1]; overall Ames test result, TA98 and TA100, with and without S9
  genotoxicity (Ames test results): negative
[2]; TA100, With S9, 3 μg/plate
  Cytotoxicity: −
  Mutagenicity: −
[2]; TA100, With S9, 30 μg/plate
  Cytotoxicity: −
  Mutagenicity: −
[2]; TA100, With S9, 300 μg/plate
  Cytotoxicity: −
  Mutagenicity: −
[2]; TA100, With S9, 3000 μg/plate
  Cytotoxicity: −
  Mutagenicity: −
[2]; TA100, Without S9, 3 μg/plate
  Cytotoxicity: −
  Mutagenicity: −
[2]; TA100, Without S9, 30 μg/plate
  Cytotoxicity: −
  Mutagenicity: −
[2]; [9]
  Cytotoxicity: −
  Mutagenicity: −
[2]; [10]
  Cytotoxicity: −
  Mutagenicity: −
[3]; 25, 50, 100 mg/kg/day q.d. orally, H&E lung histology day 21
  inhibition of BLM-induced lung fibrosis: inhibits BLM-induced lung fibrosis in a dose-dependent manner
[3]; dexamethasone 0.5 mg/kg/day q.d. orally
  efficacy in the inhibition compared with dexamethasone: higher than dexamethasone
[4]; 25, 50, 100 mg/kg/day q.d. orally, H&E lung histology day 39
  inhibition of BLM-induced lung fibrosis: inhibits BLM-induced lung fibrosis in a dose-dependent manner
[4]; pirfenidone 200 mg/kg/day q.d. orally
  efficacy in inhibition compared with pirfenidone: higher than pirfenidone
[5]; 25 mg/kg/day q.d. orally, H&E lung histology week 12
  inhibition of OVA-induced lung fibrosis: inhibits OVA-induced lung fibrosis in a dose dependent manner
[5]; dexamethasone 25 mg/kg/day q.d. orally
  efficacy in inhibition compared with dexamethasone: higher than dexamethasone
[6]; 25, 50, 100 mg/kg/day q.d. orally, α-SMA IHC of liver day 43
  inhibition on CC14-induced liver fibrosis: dose-dependent
[6]; pirfenidone 250 mg/kg/day q.d. orally
  efficacy in inhibition compared with pirfenidone: higher than pirfenidone
CHO; [11]
  % Cytotoxicity CBPI Index: 57.4%
  % Micronucleated Cells: 1.45%
CHO; [12]
  % Cytotoxicity CBPI Index: 62.2%
  % Micronucleated Cells: 1.76%
CHO; [13]
  % Cytotoxicity CBPI Index: 41.5%
  % Micronucleated Cells: 1.64%
CHO; [14]
  % Cytotoxicity CBPI Index: 68.8%
  % Micronucleated Cells: 1.94%
CHO; [15]
  % Cytotoxicity CBPI Index: 47.3%
  % Micronucleated Cells: 1.26%
CHO; overall result of the assay
  genotoxicity (micronucleus assay): negative
CHO; second section (CHO + S9, HCA), 1.3E−04 M
  Flat: CYTO (High cytotoxicity resulting in an insufficient number of scored cells (≥80% cytotoxicity))
CHO; [16]
  % Cytotoxicity CBPI Index: 53.1%
  % Micronucleated Cells: 1.35%
CHO; second section (CHO + S9, HCA), 2.5E−04 M
  Flat: CYTO (High cytotoxicity resulting in an insufficient number of scored cells (≥80% cytotoxicity))
CHO; [17]
  % Cytotoxicity CBPI Index: 58.8%
  % Micronucleated Cells: 1.25%
CHO; second section (CHO + S9, HCA), 6.3E−05 M
  Flat: CYTO (High cytotoxicity resulting in an insufficient number of scored cells (≥80% cytotoxicity))
CHO; [18]
  % Cytotoxicity CBPI Index: 26.7%
  % Micronucleated Cells: 1.29%
In vitro; [11]
  cytotoxicity at 0.00013 M: 37.6%
In vitro; [12]
  cytotoxicity at 0.00025 M: 51.8%
In vitro; first section (CHO + S9, HCA)
  cytotoxicity at 31 µM: 19.1%
In vitro; [14]
  cytotoxicity at 0.0005 M: 61.7%
In vitro; [15]
  cytotoxicity at 63 µM: 31.9%
In vitro; [16]
  cytotoxicity at 16 µM: 60.4%
In vitro; second section (CHO + S9, HCA)
  cytotoxicity at 31 µM: 69%
In vitro; [18]
  cytotoxicity at 7.8 µM: 42.2%

## CO[C@@]12[C@H](COC(N)=O)C3=C(C(=O)C(C)=C(N)C3=O)N1C[C@@H]1N[C@@H]12 [Mitomycin C, reference compound]
CHO; reference compound, second section (CHO + S9, HCA), 3.0E−07 M
  % Micronucleated Cells: 4.38%
